Data taken from article doi:10.1101/2025.03.25.645215v1 (biorxiv, 2025).

What follows are compounds tested against T1, B^0AT2/SLC6A15 (eGFP-hSLC6A15) (Homo sapiens, UniProt Q9H2J7) (assay: cell-based). Conditions: not given.
T1 sequence (Q9H2J7 1-730): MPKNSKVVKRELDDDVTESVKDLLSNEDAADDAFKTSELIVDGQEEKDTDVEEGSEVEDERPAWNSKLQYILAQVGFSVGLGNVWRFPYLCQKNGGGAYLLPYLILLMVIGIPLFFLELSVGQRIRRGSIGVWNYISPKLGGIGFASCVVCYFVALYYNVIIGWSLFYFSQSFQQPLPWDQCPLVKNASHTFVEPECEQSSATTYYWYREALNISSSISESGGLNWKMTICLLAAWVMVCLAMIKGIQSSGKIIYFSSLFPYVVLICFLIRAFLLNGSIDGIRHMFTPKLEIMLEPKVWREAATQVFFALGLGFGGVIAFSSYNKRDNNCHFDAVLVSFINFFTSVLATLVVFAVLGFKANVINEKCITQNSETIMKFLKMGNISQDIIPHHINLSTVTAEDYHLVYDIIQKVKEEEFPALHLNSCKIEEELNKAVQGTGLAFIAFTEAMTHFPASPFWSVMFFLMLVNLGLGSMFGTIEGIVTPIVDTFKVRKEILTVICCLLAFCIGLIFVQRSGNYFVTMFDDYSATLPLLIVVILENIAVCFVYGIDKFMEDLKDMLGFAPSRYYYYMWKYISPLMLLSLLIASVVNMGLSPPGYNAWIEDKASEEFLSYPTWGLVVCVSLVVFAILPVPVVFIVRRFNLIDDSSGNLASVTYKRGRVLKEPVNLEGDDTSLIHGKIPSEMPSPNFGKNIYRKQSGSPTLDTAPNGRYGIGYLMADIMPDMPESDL
Parameters: species or system HEK293 eGFP-hSLC6A15

Point of comparison: CC1(C)CC(=O)C2=C(C1)Nc1ccccc1N(C(=O)c1ccccc1)C2c1ccc(Cl)c(Cl)c1 (stereo not shown) [11z], IC50 2.3 ± 0.4 µM. Against it:
- CC1(C)CC(=O)C2=C(C1)Nc1ccccc1N(C(=O)c1ccccc1)C2c1ccccc1 (stereo not shown) [11a] — 1.9-fold lower, 1.2 ± 0.1 µM
- CCOc1cc(C2C3=C(CC(C)(C)CC3=O)Nc3ccccc3N2C(=O)c2ccccc2)ccc1OCc1ccc(Cl)cc1 (stereo not shown) [11aa] — higher, > 80 µM
- COc1cc(C2C3=C(CC(C)(C)CC3=O)Nc3ccccc3N2C(=O)c2ccccc2)cc(OC)c1OC (stereo not shown) [11ab] — within error, 11.3 ± 14.9 µM
- CC1(C)CC(=O)C2=C(C1)Nc1ccccc1N(C(=O)c1ccccc1)C2c1ccc(F)cc1 (stereo not shown) [11b] — within error, 2 ± 0.2 µM
- CC1(C)CC(=O)C2=C(C1)Nc1ccccc1N(C(=O)c1ccccc1)C2c1ccc(Cl)cc1 (stereo not shown) [11c] — 2.6-fold lower, 0.9 ± 0.1 µM
- CC1(C)CC(=O)C2=C(C1)Nc1ccccc1N(C(=O)c1ccccc1)C2c1ccc(Br)cc1 (stereo not shown) [11d] — 3.1-fold lower, 0.74 ± 0.07 µM
- CC1(C)CC(=O)C2=C(C1)Nc1ccccc1N(C(=O)c1ccccc1)C2c1ccc(C#N)cc1 (stereo not shown) [11e] — 3.2-fold lower, 0.73 ± 0.04 µM
- COc1ccc(C2C3=C(CC(C)(C)CC3=O)Nc3ccccc3N2C(=O)c2ccccc2)cc1 (stereo not shown) [11f] — 5.7-fold lower, 0.4 ± 0.03 µM
- CCOc1ccc(C2C3=C(CC(C)(C)CC3=O)Nc3ccccc3N2C(=O)c2ccccc2)cc1 (stereo not shown) [11g] — 4.6-fold lower, 0.5 ± 0.05 µM
- CC(C)Oc1ccc(C2C3=C(CC(C)(C)CC3=O)Nc3ccccc3N2C(=O)c2ccccc2)cc1 (stereo not shown) [11h] — 2.1-fold lower, 1.1 ± 0.1 µM
- CCCCOc1ccc(C2C3=C(CC(C)(C)CC3=O)Nc3ccccc3N2C(=O)c2ccccc2)cc1 (stereo not shown) [11i] — 4-fold lower, 0.58 ± 0.03 µM
- CCCCCOc1ccc(C2C3=C(CC(C)(C)CC3=O)Nc3ccccc3N2C(=O)c2ccccc2)cc1 (stereo not shown) [11j] — 1.9-fold lower, 1.2 ± 0.1 µM
- CC1(C)CC(=O)C2=C(C1)Nc1ccccc1N(C(=O)c1ccccc1)C2c1ccc(C(F)(F)F)cc1 (stereo not shown) [11k] — within error, 2 ± 0.2 µM
- CN(C)c1ccc(C2C3=C(CC(C)(C)CC3=O)Nc3ccccc3N2C(=O)c2ccccc2)cc1 (stereo not shown) [11l] — 4.6-fold higher, 10.6 ± 1.7 µM
- COC(=O)c1ccc(C2C3=C(CC(C)(C)CC3=O)Nc3ccccc3N2C(=O)c2ccccc2)cc1 (stereo not shown) [11m] — within error, 1.8 ± 0.3 µM
- CC1(C)CC(=O)C2=C(C1)Nc1ccccc1N(C(=O)c1ccccc1)C2c1cccc(F)c1 (stereo not shown) [11o] — 10-fold higher, 22.9 ± 14.7 µM
- COc1cccc(C2C3=C(CC(C)(C)CC3=O)Nc3ccccc3N2C(=O)c2ccccc2)c1 (stereo not shown) [11p] — within 1.5-fold, 3.2 ± 0.5 µM
- CCCOc1cccc(C2C3=C(CC(C)(C)CC3=O)Nc3ccccc3N2C(=O)c2ccccc2)c1 (stereo not shown) [11q] — 3.2-fold lower, 0.72 ± 0.07 µM
- CC(=O)Oc1cccc(C2C3=C(CC(C)(C)CC3=O)Nc3ccccc3N2C(=O)c2ccccc2)c1 (stereo not shown) [11r] — 3.6-fold lower, 0.64 ± 0.07 µM
- CC1(C)CC(=O)C2=C(C1)Nc1ccccc1N(C(=O)c1ccccc1)C2c1ccccc1F (stereo not shown) [11s] — 8.7-fold higher, 19.9 ± 8.9 µM
- CC1(C)CC(=O)C2=C(C1)Nc1ccccc1N(C(=O)c1ccccc1)C2c1ccccc1Cl (stereo not shown) [11t] — higher, > 40 µM
- COc1ccccc1C1C2=C(CC(C)(C)CC2=O)Nc2ccccc2N1C(=O)c1ccccc1 (stereo not shown) [11u] — higher, > 60 µM
- COc1ccc(C2C3=C(CC(C)(C)CC3=O)Nc3ccccc3N2C(=O)c2ccccc2)cc1OC (stereo not shown) [11w] — 3.1-fold higher, 7.1 ± 2.3 µM
- CCCOc1ccc(C2C3=C(CC(C)(C)CC3=O)Nc3ccccc3N2C(=O)c2ccccc2)cc1OC (stereo not shown) [11y] — 2.1-fold lower, 1.1 ± 0.1 µM

Same assay, conditions: read-out: B^0AT2 IC50; inhibitor

With COc1c(Cl)cc(Cl)cc1C1C2=C(CC(C)(C)CC2=O)Nc2ccccc2N1C(=O)c1ccccc1 (stereo not shown) [11ac] the IC50 was over 80 µM.

Target: T1, B^0AT2/SLC6A15 (eGFP-hSLC6A15)
Assay: cell-based
Parameters: species or system HEK293 eGFP-hSLC6A15
Conditions: not given
Remark: another data set of the same source

Point of comparison: O=C1CC(c2ccccc2)CC2=C1C(c1ccccc1)N(C(=O)c1ccccc1)c1ccccc1N2 (stereo not shown) [14a], IC50 1.1 ± 0.1 µM. Against it:
- COc1ccc(C2CC(=O)C3=C(C2)Nc2ccccc2N(C(=O)c2ccccc2)C3c2ccccc2)cc1 (stereo not shown) [14b] — within error, 1 ± 0.1 µM
- COc1ccc(C2CC(=O)C3=C(C2)Nc2ccccc2N(C(=O)c2ccccc2)C3c2ccc(OC)cc2)cc1 (stereo not shown) [14e] — within error, 1.2 ± 0.2 µM
- COc1ccc(C2C3=C(CC(c4ccc(C)cc4)CC3=O)Nc3ccccc3N2C(=O)c2ccccc2)cc1OC (stereo not shown) [14g] — 1.9-fold higher, 2.1 ± 0.5 µM
- COc1cccc(C2C3=C(CC(c4ccccc4)CC3=O)Nc3ccccc3N2C(=O)c2ccccc2)c1 (stereo not shown) [14h] — higher, > 80 µM
- COc1ccc(C2CC(=O)C3=C(C2)Nc2ccccc2N(C(=O)c2ccccc2)C3c2cccc(OC)c2)cc1 (stereo not shown) [14i] — higher, > 80 µM
- Cc1ccc(C2C3=C(CC(c4ccc(Cl)cc4)CC3=O)Nc3ccccc3N2C(=O)c2ccccc2)cc1 (stereo not shown) [14j] — higher, > 80 µM
- Cc1ccc(C2C3=C(CC(c4cccc(Cl)c4)CC3=O)Nc3ccccc3N2C(=O)c2ccccc2)cc1 (stereo not shown) [14k] — higher, > 80 µM
- Cc1ccc(C2C3=C(CC(c4ccccc4F)CC3=O)Nc3ccccc3N2C(=O)c2ccccc2)cc1 (stereo not shown) [14l] — higher, > 80 µM
- CC1CC(=O)C2=C(C1)Nc1ccccc1N(C(=O)c1ccccc1)C2c1cc(F)cc(F)c1 (stereo not shown) [14m] — 1.6-fold lower, 0.7 ± 0.05 µM

Target: T1, B^0AT2/SLC6A15 (eGFP-hSLC6A15)
Assay: cell-based
Parameters: species or system HEK293 eGFP-hSLC6A15
Conditions: not given
Remark: another data set of the same source

Point of comparison: COc1ccc(C2C3=C(CC(C)CC3=O)Nc3ccccc3N2C(=O)c2ccc(F)cc2)cc1 (stereo not shown) [13f], IC50 9 ± 11 µM. Against it:
- COc1cc(C2Nc3ccccc3NC3=C2C(=O)CCC3)ccc1O (stereo not shown) [13a] — higher, > 80 µM
- CC1(C)CC(=O)C2=C(C1)Nc1ccccc1NC2c1ccccc1 (stereo not shown) [13c] — higher, > 80 µM
- CC1(C)CC(=O)C2=C(C1)Nc1ccccc1N(Cc1ccccc1)C2c1ccccc1 (stereo not shown) [13d] — higher, > 80 µM
- CCCCOc1ccc(C2C3=C(CC(C)(C)CC3=O)Nc3ccccc3N2C(=O)c2ccccc2F)cc1 (stereo not shown) [13e] — within error, 1.4 ± 0.1 µM
- COc1ccc(C2C3=C(CC(C)(C)CC3=O)Nc3ccccc3N2C(=O)c2ccc(Cl)cc2)cc1OC (stereo not shown) [13g] — higher, > 80 µM
- O=C1CCCC2=C1C(c1ccccc1)N(C(=O)c1ccc(Cl)cc1)c1ccccc1N2 (stereo not shown) [13h] — higher, > 80 µM
- Cc1ccc(C(=O)N2c3ccccc3NC3=C(C(=O)CCC3)C2c2ccccc2)cc1 (stereo not shown) [13i] — higher, > 80 µM
- COc1ccc(C(=O)N2c3ccccc3NC3=C(C(=O)CCC3)C2c2ccccc2)cc1 (stereo not shown) [13j] — higher, > 80 µM
- O=C1CCCC2=C1C(c1ccccc1)N(C(=O)C1CCCCC1)c1ccccc1N2 (stereo not shown) [13k] — higher, > 80 µM
- O=C1CCCC2=C1C(c1ccccc1)N(C(=O)c1ccco1)c1ccccc1N2 (stereo not shown) [13l] — higher, > 55 µM
- O=C1CCCC2=C1C(c1ccccc1)N(C(=O)c1ccc3ccccc3c1)c1ccccc1N2 (stereo not shown) [13m] — higher, > 80 µM

Same assay, conditions: read-out: B^0AT2 IC50; inhibitor

Compound CCOc1cc(C2C3=C(CCCC3=O)Nc3ccccc3N2C(=O)CC)ccc1O (stereo not shown) [13b] has an IC50 of over 80 µM.

Target: T1, B^0AT2/SLC6A15 (eGFP-hSLC6A15)
Assay: cell-based
Parameters: species or system HEK293 eGFP-hSLC6A15
Conditions: not given
Remark: another data set of the same source

Point of comparison: O=C1CCCC2=C1C(c1cccnc1)N(C(=O)c1ccccc1)c1ccccc1N2 (stereo not shown) [12a], IC50 1.6 ± 0.3 µM. Against it:
- O=C1CCCC2=C1C(c1ccco1)N(C(=O)c1ccccc1)c1ccccc1N2 (stereo not shown) [12b] — 3.2-fold higher, 5.1 ± 2 µM
- CC1(C)CC(=O)C2=C(C1)Nc1ccccc1N(C(=O)c1ccccc1)C2c1cccnc1 (stereo not shown) [12c] — within error, 1.9 ± 0.4 µM
- CC1(C)CC(=O)C2=C(C1)Nc1ccccc1N(C(=O)c1ccccc1)C2c1ccccn1 (stereo not shown) [12d] — 2.4-fold higher, 3.9 ± 0.8 µM
- CC1(C)CC(=O)C2=C(C1)Nc1ccccc1N(C(=O)c1ccccc1)C2c1ccco1 (stereo not shown) [12e] — within error, 1.3 ± 0.1 µM
- Cc1ccc(C2C3=C(CC(C)(C)CC3=O)Nc3ccccc3N2C(=O)c2ccccc2)o1 (stereo not shown) [12f] — 1.6-fold higher, 2.6 ± 0.2 µM
- Cn1cccc1C1C2=C(CC(C)(C)CC2=O)Nc2ccccc2N1C(=O)c1ccccc1 (stereo not shown) [12g] — higher, > 80 µM
- CC1(C)CC(=O)C2=C(C1)Nc1ccccc1N(C(=O)c1ccccc1)C2c1c[nH]c2ccccc12 (stereo not shown) [12h] — higher, > 30 µM

Same assay, conditions: read-out: B^0AT2 IC50; inhibitor

Work on CC1(C)CC(=O)C2=C(C1)Nc1ccccc1N(C(=O)c1ccccc1)C2c1ccc(-c2ccc(Br)cc2)o1 (stereo not shown) [12i] yielded an IC50 of over 80 µM.
